Laboratory results published in US11141432B2, “Materials and methods for increasing immune responses” (Mayo Foundation for Medical Education and Research, priority 2016, dated 2021).
Where a SMILES comes first, the peptide text is derived from it. The star is where a group is joined. Cbz = O=C(OCc1ccccc1)*; CH2F = FC*

Columns and labels:
[1] = test system: CD8+ T cells obtained from OT-1 PL Rag−/− TCR transgenic mice; assay: Proliferation, clonal expansion and apoptosis of antigen-stimulated CD8+ T cells; type: cell-based
Method: (§1) Naïve or resting CD8+ T cells obtained from OT-1 PL Rag−/− TCR transgenic mice were stimulated in vitro with its cognate antigen in the presence of B7.1 co-stimulatory molecule, and cytokine IL-12 for 48h. The antigen constitutes sulfate latex microspheres (Life Technologies Cat. No. S37227) bearing DimerX Ig-recombinant dimeric mouse H-2Kb: Ig fusion protein (BD Biosciences, Cat. No. 550750) with recombinant mouse B7-1/CD80 Fc chimeric protein (R&D Systems, Cat. No. 740-B). Short synthetic peptide SIINFEKL (SEQ ID NO:1) at 10 nM concentration (sequence derived from a chicken ovalbumin protein), presented by H-2Kb DimerX serves as the cognate antigen for TCR of CD8+ T cells from OT-1 PL Rag−/−TCR transgenic mice. CD8+ T cells isolated from lymph nodes and/or spleen were stimulated with antigen in the following culture medium: Glutamine-free RPMI (Corning CellGro, Cat. No. 15-040-CV) supplemented with FBS 10%, HEPES 10 mM, NEAA 1 mM, sodium pyruvate 1 mM, glutamine 2 mM, 2-mercaptoethanol 50 μM, and Pen/Strep. T cells were cultured in flat-bottom 96-well plates at 2×105/0.2 ml/well with microspheres at the ratio of 5:1. Genipin was added at 50 μM concentration (based on dose titration that produces minimal cell death) and preincubated with cells for 45 mins before subjecting the CD8+ T cells to antigen stimulation. The CD8+ T cells are cultured and harvested at 4 hours to 48 hours for evaluation by molecular, physiologic and phenotypic characteristics by standard methodologies like flow cytometry based phenotyping, lysis for protein or mRNA derivation using western blot, PCR and metabolic flux analysis. Signal one was provided by MHC Class I (H-2Kb) dimers bearing 1-10 nM of OT-1 cognate peptide (SIINFEKL; SEQ ID NO:1) (Ag). Signal two was provided by 1 μg/ml of recombinant murine B7.1 (co-stimulation) immobilized on inert latex microspheres (serves as artificial antigen presenting cells) in the presence of the third signal; 2 ng/ml of rmIL-12 (cytokine). For antigen stimulation, the naïve T cells and latex microspheres were reacted at a ratio of 5:1 (T cells: microspheres) for various time points and were evaluated for their molecular, physiologic and phenotypic characteristics by standard methodologies including flow cytometry, western blot, PCR and metabolic flux analysis (FIG. 1). To determine whether UCP2 plays a role in antigen induced ROS generation and determine its impact on CD8+ T cell clonal expansion, antigen induced cytoplasmic (CROS) and/or mitochondrial ROS (mROS) production was evaluated by CM-H2DCFDA and MitoSox staining and flow cytometry analysis, respectively. Genetic (si-UCP2) or pharmacological (Genipin) means were used to block UCP2 function.

[2] = test system: antigen stimulated OT-1 cells; assay: Antigen-induced cytoplasmic and mitochondrial ROS by CM-H2DCFDA and MitoSox staining and flow cytometry; type: cell-based, mice
Method: Naïve or resting CD8+ T cells obtained from OT-1 PL Rag−/− TCR transgenic mice were stimulated in vitro with its cognate antigen in the presence of B7.1 co-stimulatory molecule, and cytokine IL-12 for 48h. The antigen constitutes sulfate latex microspheres (Life Technologies Cat. No. S37227) bearing DimerX Ig-recombinant dimeric mouse H-2Kb: Ig fusion protein (BD Biosciences, Cat. No. 550750) with recombinant mouse B7-1/CD80 Fc chimeric protein (R&D Systems, Cat. No. 740-B). Short synthetic peptide SIINFEKL (SEQ ID NO:1) at 10 nM concentration (sequence derived from a chicken ovalbumin protein), presented by H-2Kb DimerX serves as the cognate antigen for TCR of CD8+ T cells from OT-1 PL Rag−/−TCR transgenic mice. CD8+ T cells isolated from lymph nodes and/or spleen were stimulated with antigen in the following culture medium: Glutamine-free RPMI (Corning CellGro, Cat. No. 15-040-CV) supplemented with FBS 10%, HEPES 10 mM, NEAA 1 mM, sodium pyruvate 1 mM, glutamine 2 mM, 2-mercaptoethanol 50 μM, and Pen/Strep. […] To determine whether UCP2 plays a role in antigen induced ROS generation and determine its impact on CD8+ T cell clonal expansion, antigen induced cytoplasmic (CROS) and/or mitochondrial ROS (mROS) production was evaluated by CM-H2DCFDA and MitoSox staining and flow cytometry analysis, respectively. […]

CD8+ T cells [3] = assay: Lipid content / de novo lipid synthesis in antigen-stimulated CD8+ T cells; type: cell-based, mice
Method: Naïve or resting CD8+ T cells obtained from OT-1 PL Rag−/− TCR transgenic mice were stimulated in vitro with its cognate antigen in the presence of B7.1 co-stimulatory molecule, and cytokine IL-12 for 48h. The antigen constitutes sulfate latex microspheres (Life Technologies Cat. No. S37227) bearing DimerX Ig-recombinant dimeric mouse H-2Kb: Ig fusion protein (BD Biosciences, Cat. No. 550750) with recombinant mouse B7-1/CD80 Fc chimeric protein (R&D Systems, Cat. No. 740-B). Short synthetic peptide SIINFEKL (SEQ ID NO:1) at 10 nM concentration (sequence derived from a chicken ovalbumin protein), presented by H-2Kb DimerX serves as the cognate antigen for TCR of CD8+ T cells from OT-1 PL Rag−/−TCR transgenic mice. CD8+ T cells isolated from lymph nodes and/or spleen were stimulated with antigen in the following culture medium: Glutamine-free RPMI (Corning CellGro, Cat. No. 15-040-CV) supplemented with FBS 10%, HEPES 10 mM, NEAA 1 mM, sodium pyruvate 1 mM, glutamine 2 mM, 2-mercaptoethanol 50 μM, and Pen/Strep. T cells were cultured in flat-bottom 96-well plates at 2×105/0.2 ml/well with microspheres at the ratio of 5:1. Genipin was added at 50 μM concentration (based on dose titration that produces minimal cell death) and preincubated with cells for 45 mins before subjecting the CD8+ T cells to antigen stimulation. […]

CD8+ T cells [4] = assay: Metabolic flux analysis (ECAR/OCR, spare respiratory capacity) of antigen-stimulated CD8+ T cells; type: cell-based, mice; settings: antigen stimulation in the presence of Genipin, FIG. 4A
Method: Naïve or resting CD8+ T cells obtained from OT-1 PL Rag−/− TCR transgenic mice were stimulated in vitro with its cognate antigen in the presence of B7.1 co-stimulatory molecule, and cytokine IL-12 for 48h. The antigen constitutes sulfate latex microspheres (Life Technologies Cat. No. S37227) bearing DimerX Ig-recombinant dimeric mouse H-2Kb: Ig fusion protein (BD Biosciences, Cat. No. 550750) with recombinant mouse B7-1/CD80 Fc chimeric protein (R&D Systems, Cat. No. 740-B). Short synthetic peptide SIINFEKL (SEQ ID NO:1) at 10 nM concentration (sequence derived from a chicken ovalbumin protein), presented by H-2Kb DimerX serves as the cognate antigen for TCR of CD8+ T cells from OT-1 PL Rag−/−TCR transgenic mice. CD8+ T cells isolated from lymph nodes and/or spleen were stimulated with antigen in the following culture medium: Glutamine-free RPMI (Corning CellGro, Cat. No. 15-040-CV) supplemented with FBS 10%, HEPES 10 mM, NEAA 1 mM, sodium pyruvate 1 mM, glutamine 2 mM, 2-mercaptoethanol 50 μM, and Pen/Strep. […] For antigen stimulation, the naïve T cells and latex microspheres were reacted at a ratio of 5:1 (T cells: microspheres) for various time points and were evaluated for their molecular, physiologic and phenotypic characteristics by standard methodologies including flow cytometry, western blot, PCR and metabolic flux analysis (FIG. 1).

CD8+ T cells [5] = assay: Phenotyping of effector differentiation markers and transcription factors in CD8+ T cells; type: cell-based, mice; settings: CD8+ T cells treated with Genipin
Method: as §1, with “1).” for “1). To determine whether UCP2 plays a role in antigen induced ROS generation and determine its impact on CD8+ T cell clonal expansion, antigen induced cytoplasmic (CROS) and/or mitochondrial ROS (mROS) production was evaluated by CM-H2DCFDA and MitoSox staining and flow cytometry analysis, respectively. Genetic (si-UCP2) or pharmacological (Genipin) means were used to block UCP2 function.”

[6] = UCP2 inhibited OT-1 cells, FIG. 3C

CC(NC(=O)C(NC(=O)OCc1ccccc1)C(C)C)C(=O)NC(CC(=O)O)C(=O)CF (stereo not drawn) [ZVAD] (Cbz-Val-Ala-Asp-CH2F; configuration not given here)
Genipin-induced contraction in clonal expansion on addition of pan caspase inhibitor ([1]; added to Genipin treated cells, FIG. 3B): can be reversed

CC1(C)CC(NC(=O)C[P+](c2ccccc2)(c2ccccc2)c2ccccc2)CC(C)(C)N1[O] [MitoTempo]
cell proliferation and cell contraction after quenching of mitochondrial ROS [1, 6]: restored
mitochondrial ROS after quenching with mitochondrially targeted antioxidant [2, 6]: reverses ROS

SML0068
lipid synthesis on blocking cytoplasmic export of citrate from the mitochondria (CD8+ T cells [3]; UCP2 inhibited cells, FIG. 4D): reduced lipid synthesis

COC(=O)C1=CO[C@@H](O)[C@@H]2C(CO)=CC[C@H]12 [Genipin]
ECAR/OCR ratio (glycolysis over mitochondrial respiration) (CD8+ T cells [4]): higher
spare respiratory capacity (SRC) (CD8+ T cells [4]): very low
proliferation of activated CD8+ T cells ([1]; Genipin treated, 50 μM, FIG. 3A): limited proliferation
apoptosis (contraction in clonal expansion) ([1]; Genipin treated, FIG. 3B): increased apoptosis
PD-1 and Lag3 expression (CD8+ T cells [5]): increases
Blimp1/BC16 ratio (CD8+ T cells [5]; FIG. 5): increasing
Tbet/Eomes ratio (CD8+ T cells [5]; FIG. 5): increasing
expression of IFNγ, Gzmb, and effector cell markers KLRG1 and CXCR3 (CD8+ T cells [5]; FIG. 5): increased expression
lipid content (de novo lipid synthesis) (CD8+ T cells [3]; antigen stimulation in the presence of Genipin, FIG. 4B): increased lipid content
mitochondrial reactive oxygen species (ROS) ([2]; Genipin treated): increase
